Patent publication US20040171688A1, “Carboxylic acids and derivatives thereof and pharmaceutical compositions containing them” (priority 1997, published 2004)

Target: T1, HNF-4α (Rattus norvegicus, UniProt P22449)
T1 sequence (P22449 1-464 isoform P22449-2): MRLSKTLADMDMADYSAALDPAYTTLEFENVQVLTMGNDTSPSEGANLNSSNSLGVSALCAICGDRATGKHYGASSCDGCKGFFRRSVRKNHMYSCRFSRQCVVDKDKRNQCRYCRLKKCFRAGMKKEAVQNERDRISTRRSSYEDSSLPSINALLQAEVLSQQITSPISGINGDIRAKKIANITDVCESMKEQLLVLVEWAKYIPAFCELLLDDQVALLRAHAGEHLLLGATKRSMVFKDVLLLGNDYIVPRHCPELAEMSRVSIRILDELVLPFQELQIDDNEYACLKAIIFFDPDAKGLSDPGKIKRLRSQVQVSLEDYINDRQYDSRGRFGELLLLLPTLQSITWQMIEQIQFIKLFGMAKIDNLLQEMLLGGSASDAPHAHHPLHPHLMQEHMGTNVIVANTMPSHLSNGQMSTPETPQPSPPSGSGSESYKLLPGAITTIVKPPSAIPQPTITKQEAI
Experiment: In vitro transcription assay induced by His-HNF-4α with HeLa nuclear extract
Assay type: biochemical
Design: The full length HNF-4α1 cDNA cloned into 6His-pET11d vector was expressed in E.coli BL21 (DE3)plysS; 6His; made in house; host or cells: E. coli BL21 (DE3)plysS
Conditions: for HNF-4α transcriptional activity, agonist/antagonist character (summary): summary statement of Example 4
Protocol: a. Representative experiments showing in vitro transcription of the test template in the presence of increasing concentrations of His-HNF-4I and in the absence (lanes 1-3, 7-9) or presence of 10 μM of added palmitoyl(16:0)-CoA (lanes 4-6) or stearoyl(18:0)-CoA (lanes 10,11) as indicated. Correctly initiated transcripts of the test and control templates are denoted by (→) and ? , respectively.
b. HNF-4I-induced in vitro transcription in the absence (empty bars) or presence of 10 μM each of added palmitoyl(16:0)-CoA (filled bars) or stearoyl(18:0)-CoA (hatched bars). Fold transcription indicates the ratio of specific transcript produced by the test template over transcript from the control template normalized to the ratio observed without HNF-4a. The figure summarizes 5 independent experiments for each acyl-CoA. *-Significant as compared with the respective value in the absence of added ligand.
Reaction mixture contained 20 mM Hepes-KOH (pH 7.9), 5 mM MgCl2, 60 mM KCl, 8% glycerol, 2 mM DTT, 1 mM 3′-O-methyl-GTP, 10 units of T1RNase, 20 units of RNasin, 0.5 μg sonicated salmon sperm DNA and His-HNF-4α and test ligand as indicated. The mixture was preincubated for 30 min at 22° C. followed by adding 10 ng of pAdML200 control template consisting of the adenovirus major-late promoter (−400/+10) linked to a 200 bp G-less cassette and 200 ng of the test template consisting of three C3P copies of the apo CIII promoter sequence (−87/−66) upstream to a synthetic ovalbumin TATA box promoter in front of a 377 bp-G-less cassette. The mixture was further preincubated for 10 min at 22° C. followed by adding 40 μg of HeLa nuclear extract with additional preincubation for 30 min at 30° C. 0.5-mM ATP, 0.5 mM CTP, 25 μM UTP, and 10 μCi of [α-^32P]UTP (s.a. […], Amersham) were then added and the complete reaction mixture was incubated for 45 min at 30° C. in a final volume of 25 μl. The reaction was terminated by adding 175 μl of stop mix (0.1 M sodium acetate (pH 5.2), 10 mM EDTA, 0.1% SDS, 200 μg/ml tRNA) followed by phenol extraction and ethanol precipitation. RNA was resuspended in sample buffer containing 80% formamide and 10 mM Tris-HCl (pH 7.4) and separated on 5% polyacrylamide gel containing 7 M urea in TBE. Correctly initiated transcripts were quantitated by PhosphorImager analysis. The test DNA template was constructed by inserting into pC2AT19 plasmid a PCR-amplified oligonucleotide prepared by using the (C3P)3-TK-CAT plasmid as template and consisting of three copies of the C3P element of the Apo CIII promoter sequence (−87/−66) having an ECoRI and SSTI sites at the 5′ and 3′ ends, respectively. The resultant plasmid was cleaved with sphI and sacI and ligated to a synthetic oligonucleotide (5′-CGAGGTCCAC-[…]-3′) containing sequences of the HSV thymidine kinase promoter (−41/−29) and of the chicken ovalbumin promoter (−33/−21).
The effect of agonistic and antagonistic HNF-4α-ligands was further evaluated by analyzing the in vitro transcription rate, catalyzed by added HeLa nuclear extract and induced by recombinant HNF-4α, of a test template consisting of a 377 bp G-less cassette promoted by sequences of the HSV thymidine kinase and chicken ovalbumin promoters and enhanced by three C3P copies of the apo Clil gene promoter. Transcriptional activation by HNF-4α was evaluated in the presence and in the absence of added representative long chain fatty acyl-CoAs. […]

| effect on HNF-4α induced in vitro transcription (10 μM added acyl-CoA (FIG. 3)) | HNF-4α transcriptional activity, agonist/antagonist character (summary) | SMILES |
| --- | --- | --- |
| inhibited | true antagonist | CCCCCCCCCCCCCCCCCC(=O)SCCNC(=O)CCNC(=O)[C@H](O)C(C)(C)COP(=O)(O)OP(=O)(O)OC[C@H]1O[C@@H](n2cnc3c(N)ncnc32)[C@H](O)[C@@H]1OP(=O)(O)O [Stearoyl(18:0)-CoA] |
| – | activators | CCCCCCCCCCCCCC(=O)SCCNC(=O)CCNC(=O)[C@H](O)C(C)(C)COP(=O)(O)OP(=O)(O)OC[C@H]1O[C@@H](n2cnc3c(N)ncnc32)[C@H](O)[C@@H]1OP(=O)(O)O [myristoyl(14:0)-CoA, reference compound] |
